The values that follow are results of earlier work, collected in US20240000829A1, “COPOLYMER CONTAINING POLY(ETHYLENE GLYCOL) AND POLY(L-AMINO ACID DERIVATIVE), MICROPARTICLES THEREOF AND USE THEREOF IN PHARMACEUTICAL COMPOSITION” (University of Tsukuba, priority 2020, published 2024).

In the series the test system is patients with hepatic disorders such as hepatic cirrhosis. Conditions: reported; Non-Patent Document 1.

For `NCCC[C@H](N)C(=O)O` [L-ornithine], the “ammonia level / concentration” value is “reduced ammonia levels”.
